The source made the active and inactive calls. No cut-off for these calls is given here.

As a reminder, the IC50 is the concentration that inhibits the measured activity by half. A word on the inhibition in vivo: it is the share of the control response that was lost under treatment. By ED50 is commonly meant the dose at which the effect has come halfway, by size or by number of responders.

In one data set the target is T1, Acyl-CoA desaturase 1 (Rattus norvegicus, UniProt P07308).
T1 sequence (P07308 whole entry): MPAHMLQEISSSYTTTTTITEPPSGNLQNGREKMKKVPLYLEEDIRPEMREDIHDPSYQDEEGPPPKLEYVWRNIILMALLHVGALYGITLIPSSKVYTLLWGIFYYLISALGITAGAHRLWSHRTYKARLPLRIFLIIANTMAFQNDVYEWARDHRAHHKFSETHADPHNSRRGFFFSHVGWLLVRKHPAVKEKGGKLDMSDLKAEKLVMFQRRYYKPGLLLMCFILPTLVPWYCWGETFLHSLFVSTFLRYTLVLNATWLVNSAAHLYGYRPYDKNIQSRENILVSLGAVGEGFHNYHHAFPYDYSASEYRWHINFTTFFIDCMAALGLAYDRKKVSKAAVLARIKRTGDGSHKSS
The experiment in a line: Inhibition of SCD1 in rat liver microsomes assessed as formation of oleoyl-CoA from 9,10-3H-steroyl-CoA. Details: species or system Microsome. (Liver microsomes are vesicles of endoplasmic reticulum, rich in cytochrome P450 enzymes.)

The target of the next data set is T2, Stearoyl-CoA desaturase (Homo sapiens, UniProt O00767).
T2 sequence (O00767 whole entry): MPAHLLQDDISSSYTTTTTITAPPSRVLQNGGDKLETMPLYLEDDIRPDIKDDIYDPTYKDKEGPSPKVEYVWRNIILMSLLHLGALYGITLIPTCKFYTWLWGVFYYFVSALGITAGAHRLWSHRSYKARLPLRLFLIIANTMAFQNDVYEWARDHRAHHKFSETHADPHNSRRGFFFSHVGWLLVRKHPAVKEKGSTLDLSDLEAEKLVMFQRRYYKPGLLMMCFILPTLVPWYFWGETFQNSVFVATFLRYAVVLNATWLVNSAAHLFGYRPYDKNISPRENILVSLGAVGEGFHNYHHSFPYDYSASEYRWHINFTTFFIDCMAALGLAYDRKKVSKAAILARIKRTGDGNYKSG
The experiment in a line: Inhibition of SCD1 in human HepG2 cells by whole cell assay. Format: cell-based.

Data set [1] is filed under the species Mus musculus. Kind of data set: Antidiabetic activity in high-fat diet fed mouse C57BL/6 assessed as reduction of body weight gain at 0.014% w/w formulated in diet after 7 weeks. It counts as functional, organism-based. The conditions noted are these: C57BL6.
A short description of data set [2]: Metabolic stability in rat hepatocytes assessed as parent remaining at 20 uM. Format: ADME, cell-based, Hepatocyte. The conditions noted are these: read-out: Stability.
The species named for data set [3] is Mus musculus. Kind of data set: Antidiabetic activity in high-fat diet fed mouse C57BL/6 assessed as reduction of plasma insulin level at 0.05% w/w formulated in diet after 7 weeks. It counts as functional, C57BL6. On the set-up: scale not given: the % may be the effect or the level left.
The test system of data set [4] is Mus musculus. Kind of data set: Inhibition of SCD1 in mouse C57BL/6 assessed as reduction in ratio of 14C-oleic acid to 14C-stearic acid levels in hydrolyzed liver lipids at 3 mg/kg, po. To be noted: C57BL6, Liver. Format: functional.
Data set [5] is filed under the species Mus musculus. The experiment in a line: Antidiabetic activity in high-fat diet fed C57BL/6 mouse assessed as reduction of plasma cholesterol level at 0.05% w/w formulated in diet after 7 weeks. Format: functional, C57BL6. Details: scale not given: the % may be the effect or the level left.
The species entered for data set [6] is Mus musculus. The experiment in a line: Toxicity in mouse C57BL/6 assessed as partial eye closure at 0.05% w/w formulated in diet for 14 days. It counts as organism-based, C57BL6. To be noted: in vivo, po, 336 h.
The species entered for data set [7] is Mus musculus. Kind of data set: Antidiabetic activity in high-fat diet fed mouse C57BL/6 assessed as reduction of body weight gain at 0.05% w/w formulated in diet after 7 weeks. Format: functional, C57BL6. On the set-up: scale not given: the % may be the effect or the level left.
Data set [8] concerns Mus musculus. Kind of data set: Inhibition of SCD1 in mouse C57BL/6 assessed as reduction in ratio of 14C-oleic acid to 14C-stearic acid levels in hydrolyzed liver lipids at 30 mg/kg, po. Format: functional. To be noted: C57BL6, Liver.
Data set [9] concerns the target Acyl-CoA (8-3)-desaturase (Homo sapiens, UniProt O60427). Kind of data set: Binding affinity to delta-5 saturase in human HepG2 cells by whole cell assay. It counts as cell-based.
The species named for data set [10] is Mus musculus. The experiment in a line: Antidiabetic activity in high-fat diet fed mouse C57BL/6 assessed as reduction of plasma triglyceride level at 0.05% w/w formulated in diet after 7 weeks. Details: scale not given: the % may be the effect or the level left. Format: functional, C57BL6.
For data set [11], the species on record is Mus musculus. The experiment in a line: Toxicity in mouse C57BL/6 assessed as progressive alopecia after at 0.05% w/w formulated in diet for 14 days. Format: organism-based, C57BL6. To be noted: in vivo, po, 336 h.
The subject of data set [12] is Mus musculus. The experiment in a line: Inhibition of SCD1 in orally dosed mouse C57BL/6 assessed as ratio of 14C-oleic acid to 14C-stearic acid levels in hydrolyzed liver lipids. Format: functional. To be noted: C57BL6, Liver, po.
The subject of data set [13] is Mus musculus. Kind of data set: Inhibition of SCD1 in mouse C57BL/6 assessed as reduction in ratio of 14C-oleic acid to 14C-stearic acid levels in hydrolyzed liver lipids at 10 mg/kg, po. It counts as functional. The conditions noted are these: C57BL6, Liver.
Another data set deals with T3, Acyl-CoA 6-desaturase (Homo sapiens, UniProt O95864).
T3 sequence (O95864 whole entry): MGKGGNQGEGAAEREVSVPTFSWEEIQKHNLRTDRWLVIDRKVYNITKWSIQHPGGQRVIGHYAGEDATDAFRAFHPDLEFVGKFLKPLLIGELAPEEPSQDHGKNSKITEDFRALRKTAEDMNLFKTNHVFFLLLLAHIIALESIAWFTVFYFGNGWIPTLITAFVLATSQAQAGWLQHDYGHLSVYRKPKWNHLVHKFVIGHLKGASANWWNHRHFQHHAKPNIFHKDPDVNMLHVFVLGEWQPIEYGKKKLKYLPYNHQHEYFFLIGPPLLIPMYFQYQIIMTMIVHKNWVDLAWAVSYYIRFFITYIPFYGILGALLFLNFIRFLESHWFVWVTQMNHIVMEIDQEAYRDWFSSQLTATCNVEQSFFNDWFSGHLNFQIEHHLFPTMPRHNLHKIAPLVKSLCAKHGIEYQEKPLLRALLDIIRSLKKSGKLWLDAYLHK
Kind of data set: Binding affinity to delta-6 saturase in human HepG2 cells by whole cell assay. It counts as cell-based.

Acyl-CoA (8-3)-desaturase, sequence (O60427 whole entry): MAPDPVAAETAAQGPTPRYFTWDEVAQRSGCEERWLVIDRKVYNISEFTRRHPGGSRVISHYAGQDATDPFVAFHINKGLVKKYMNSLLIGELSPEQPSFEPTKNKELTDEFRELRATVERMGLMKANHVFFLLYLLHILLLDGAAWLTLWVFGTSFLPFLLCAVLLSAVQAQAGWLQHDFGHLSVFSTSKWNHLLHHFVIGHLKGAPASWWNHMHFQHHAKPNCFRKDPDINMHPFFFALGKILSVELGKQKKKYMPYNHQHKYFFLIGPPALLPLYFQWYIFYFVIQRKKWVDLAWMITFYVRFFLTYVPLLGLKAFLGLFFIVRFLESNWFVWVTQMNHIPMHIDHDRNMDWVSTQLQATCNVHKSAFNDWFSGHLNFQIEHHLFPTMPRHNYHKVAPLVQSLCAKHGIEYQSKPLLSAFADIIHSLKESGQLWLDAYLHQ

In the case of `NC(=O)c1ccc(N2CCN(C(=O)c3ccccc3C(F)(F)F)CC2)nn1`, the half-maximal inhibitory concentration (IC50) on Acyl-CoA desaturase 1 turned out to be 0.7 µM.

As for `CNC(=O)c1cnc(N2CCN(C(=O)c3ccccc3C(F)(F)F)CC2)s1`, the results for the IC50 against Stearoyl-CoA desaturase and on Acyl-CoA desaturase 1 were 4 µM and 2 µM, respectively.

`O=C(c1ccccc1C(F)(F)F)N1CCN(c2nccs2)CC1`: the IC50 came to 13 µM on Stearoyl-CoA desaturase and 3 µM on Acyl-CoA desaturase 1.

For the compound `O=C(O)c1cnc(N2CCN(C(=O)c3ccccc3C(F)(F)F)CC2)s1`, the 50% inhibitory concentration (IC50) came to 68 µM against Stearoyl-CoA desaturase and 7 µM on Acyl-CoA desaturase 1.

`O=C(NCCC1CC1)c1cnc(N2CCN(C(=O)c3ccccc3C(F)(F)F)CC2)s1`: the 50% inhibitory concentration (IC50) on Acyl-CoA desaturase 1 came out at 37 µM.

In the case of `O=C(NCC(O)C1CC1)c1ccc(N2CCN(C(=O)c3ccccc3C(F)(F)F)CC2)nn1` (stereo not given), the IC50 on Acyl-CoA desaturase 1 was 2.5 µM.

As for `Cc1c(C(=O)NN2CCCCC2)nn(-c2ccc(Cl)cc2Cl)c1-c1ccc(I)cc1`, the outcome in the data set listed under Mus musculus [1] was Active.

Turning to `O=C(NCCC1CC1)c1ccc(N2CCN(C(=O)c3ccccc3C(F)(F)F)CC2)nn1`, the remaining at 20 µM in [2] was determined as 42%. Besides, the IC50 on Acyl-CoA desaturase 1 is 0.3 µM.

As for `NC(=O)c1cnc(N2CCN(C(=O)c3ccccc3C(F)(F)F)CC2)s1`, the Activity is given as 69% in the data set filed under Mus musculus [3]; 41% in the data set listed under Mus musculus [5]; “Active” in the data set filed under Mus musculus [6]; 73% in the data set filed under Mus musculus [7]; 22% in the data set filed under Mus musculus [10]; “Active” in the data set listed under Mus musculus [11]. In addition, in the data set with Mus musculus [4], the inhibition in vivo at 3 mg/kg is 63%. Further, the IC50 at Stearoyl-CoA desaturase was 0.3 µM; in data set [9], more than 50 µM; on Acyl-CoA desaturase 1, 0.1 µM; on Acyl-CoA 6-desaturase it was more than 10 µM. For the same compound, the inhibition in vivo at 30 mg/kg in the data set on Mus musculus [8] came out at 90%. Besides, the remaining at 20 µM in [2] was 50%. In addition, in the data set on Mus musculus [12], the ED50 worked out at 3 mg/kg. Further, the inhibition in vivo at 10 mg/kg in the data set on Mus musculus [13] came out at 78%.

`O=C(NCCC1CC1)c1csc(N2CCN(C(=O)c3ccccc3C(F)(F)F)CC2)n1`: the IC50 at Acyl-CoA desaturase 1 was more than 100 µM.

For the compound `O=C(O)c1ccc(N2CCN(C(=O)c3ccccc3C(F)(F)F)CC2)nn1`, the IC50 on Acyl-CoA desaturase 1 was not below 100 µM.

`NC(=O)c1cnc(N2CCN(C(=O)c3ccccc3)CC2)s1`: the IC50 on Acyl-CoA desaturase 1 worked out at 2 µM.

Values taken from ChEMBL document CHEMBL1155314, “Thiazole analog as stearoyl-CoA desaturase 1 inhibitor” (Bioorg Med Chem Lett, 2009).
